Patent US9067918B2, “Crystalline forms of 2-(2-methylamino-pyrimidin-4-yl)-1H-indole-5-carboxylic acid [ (S)-1-carbamoyl-2-(phenyl-pyrimidin-2-yl-amino)-ethyl ]-amide” (Sanofi, priority 2011, dated 2015)

Legend:
Format in all cases: physicochemical
[1] = Determination of solubility in a mixture of acetone and water (4:1, by volume); settings: acetone/water 4:1 by volume
Protocol: For the determination of the solubility in a mixture of acetone and water (4:1, by volume), samples of 0.5 mg to 50 mg of the test substances were suspended in a defined amount of the solvent (800 mg to 1200 mg) in screw cap vials with a magnetic stirring bar, which were placed in a temperature-controlled multiple stirring device equipped for transmission measurement (Avantium Crystal 16). With stirring at 700 rpm, the vials were cooled from room temperature to 0° C. and then heated to 60° C. with a heating rate of 3° C./h, kept at 60° C. for 2 h and cooled again to 0° C. with a cooling rate of 3° C./h. By means of transmission measurement it was determined whether the sample was dissolved (100% transmission), or crystals were present. For polymorph 1, polymorph 2, hydrate 1 and hydrate 2 of compound I the following solubilities in a mixture of acetone and water (4:1, by volume) were determined.

[2] = Dynamic vapor sorption (DVS), determination of hygroscopicity; settings: for hygroscopicity, water uptake: at a high relative humidity of 80%; for weight increase in sorption step: 25° C.
Protocol: For the determination of the hygroscopicity, moisture sorption/desorption isotherms were recorded on a Surface Measurement Systems DVS-1 instrument. […] The data were evaluated with the software DVSWin V.2.15. In the DVS analysis of polymorph 1 and polymorph 2 of compound I, in the sorption steps of the two cycles the following weight increases were observed.

[3] = Solubility (qualitative); settings: qualitative statement; for solubility compared with polymorph 1: solvent not stated
[4] = Thermogravimetry (TG); settings: for TG weight loss: until the melting point
Protocol: Thermogravimetric analyses were performed with a METTLER TGA851e instrument. 100 μl Al-crucibles with sealed lid and hole were used and the measurements performed in a nitrogen gas flow of 50 ml/min. The measured data were evaluated with the software STARe V8.10. TG measurements with infra-red (IR) spectroscopic analysis of volatiles were performed with a METTLER TGA851e instrument as described, which was coupled to a Thermo-Nicolet 380 FT-IR spectrometer equipped with a cell for gas phase measurements. The measured IR spectra were evaluated using the software OMNIC V.7.3. In the TG analyses of polymorph 1 and polymorph 2 of compound I until the melting point, insignificant weight losses of 0.2% and 0.7%, respectively, were observed. In the TG analysis of hydrate 1 of compound I, a gradual weight loss of 6.4% was observed between room temperature and 120° C. […] The observed weight loss corresponds to about 1.9 mol of water per mol of 2-(2-methylamino-pyrimidin-4-yl)-1H-indole-5-carboxylic acid [(S)-1-carbamoyl-2-(phenyl-pyrimidin-2-yl-amino)-ethyl]-amide. In the TG FT-IR analysis of hydrate 2 of compound I, a weight loss of 17-18% of water mainly in two steps was observed between room temperature and 140° C., which corresponds to about 6 mol of water per mol of 2-(2-methylamino-pyrimidin-4-yl)-1H-indole-5-carboxylic acid [(S)-1-carbamoyl-2-(phenyl-pyrimidin-2-yl-amino)-ethyl]-amide.

[5] = Maturation experiments (slurry conversion), relative stability of crystalline forms
Protocol: By maturation experiments (slurry conversion) at 20° C. the relative stability of polymorphs 1 and 2 and hydrate 1 was investigated.
A polymorph mixture of 81 mg (Mixture of Polymorph 1 and Polymorph 2), 83 mg of Polymorph 1 and 60 mg of hydrate 1 was prepared. The mixture was subjected to XRPD analysis to confirm the presence of all three polymorphs and then distributed into five capillaries. These samples were kept in suspension at 20° C. for five days. After X-ray powder diffraction measurement of the suspensions these were dried over night at 40° C. and <100 mbar and again subjected to X-ray diffraction. Maturation experiments (a) to (e) were performed under the specified conditions, starting with the polymorph mixture described above.

[6] = relative humidity 40%, first value (cycle 1)
[7] = relative humidity 40%, second value (cycle 2)
[8] = relative humidity 60%, first value (cycle 1)
[9] = relative humidity 60%, second value (cycle 2)
[10] = relative humidity 80%, first value (cycle 1)
[11] = relative humidity 80%, second value (cycle 2)
[12] = relative humidity 95%, first value (cycle 1)
[13] = relative humidity 95%, second value (cycle 2)

solubility compared with polymorph 1 [3]	hygroscopicity, water uptake [2]	weight increase in sorption step [2, 6]	weight increase in sorption step [2, 7]	weight increase in sorption step [2, 8]	weight increase in sorption step [2, 9]	weight increase in sorption step [2, 10]	weight increase in sorption step [2, 11]	weight increase in sorption step [2, 12]	weight increase in sorption step [2, 13]	TG weight loss [4]	Compound	other results
higher solubility than polymorph 1	–	–	–	–	–	–	–	–	–	–	CNc1nccc(-c2cc3cc(C(=O)N[C@@H](CN(c4ccccc4)c4ncccn4)C(N)=O)ccc3[nH]2)n1 [Hydrate 1, 2-(2-methylamino-pyrimidin-4-yl)-1H-indole-5-carboxylic acid [(S)-1-carbamoyl-2-(phenyl-pyrimidin-2-yl-amino)-ethyl]-amide dihydrate]	Solubility [g in 100 g of solvent] ([1]; 38.6° C.): 2.11 g in 100 g of solvent; Solubility [g in 100 g of solvent] ([1]; 49.7° C.): 3.39 g in 100 g of solvent; Solubility [g in 100 g of solvent] ([1]; 57.4° C.): 5.04 g in 100 g of solvent; hygroscopicity ([2]; qualitative statement): low hygroscopicity; TG weight loss (water) ([4]; between room temperature and 120° C.): 6.4%
–	–	–	–	–	–	–	–	–	–	–	CNc1nccc(-c2cc3cc(C(=O)N[C@@H](CN(c4ccccc4)c4ncccn4)C(N)=O)ccc3[nH]2)n1 [Hydrate 2, 2-(2-methylamino-pyrimidin-4-yl)-1H-indole-5-carboxylic acid [(S)-1-carbamoyl-2-(phenyl-pyrimidin-2-yl-amino)-ethyl]-amide hexahydrate]	Solubility [g in 100 g of solvent] ([1]; 36.8° C.): 0.50 g in 100 g of solvent; Solubility [g in 100 g of solvent] ([1]; 46.1° C.): 1.02 g in 100 g of solvent; Solubility [g in 100 g of solvent] ([1]; 55.9° C.): 2.61 g in 100 g of solvent; TG weight loss (water) ([4]; between room temperature and 140° C., mainly in two steps): 17-18%
–	about 0.9%	0.5%/0.5%	0.5%/0.5%	0.6%/0.6%	0.6%/0.6%	0.9%/0.9%	0.9%/0.9%	1.3%	1.4%	0.2%	CNc1nccc(-c2cc3cc(C(=O)N[C@@H](CN(c4ccccc4)c4ncccn4)C(N)=O)ccc3[nH]2)n1 [Polymorph 1, 2-(2-methylamino-pyrimidin-4-yl)-1H-indole-5-carboxylic acid [(S)-1-carbamoyl-2-(phenyl-pyrimidin-2-yl-amino)-ethyl]-amide]	thermodynamic stability among the polymorphs ([5]; at temperatures above about 20° C., confirmed in phase conversion experiments): thermodynamically most stable polymorph; thermodynamic stability among polymorphs 1, 2 and hydrate 1 ([5]; maturation experiments (a) to (e) at 20° C.): thermodynamically most stable; Solubility [g in 100 g of solvent] ([1]; 36.9° C.): 0.43 g in 100 g of solvent; Solubility [g in 100 g of solvent] ([1]; 44.7° C.): 0.50 g in 100 g of solvent; Solubility [g in 100 g of solvent] ([1]; 60.0° C.): 0.85 g in 100 g of solvent; solubility in water [3]: low solubility in water
higher solubility than polymorph 1	about 0.4%	0.2%	0.0%	0.3%	0.1%	0.4%	0.3%	0.8%	0.6%	0.7%	CNc1nccc(-c2cc3cc(C(=O)N[C@@H](CN(c4ccccc4)c4ncccn4)C(N)=O)ccc3[nH]2)n1 [Polymorph 2, 2-(2-methylamino-pyrimidin-4-yl)-1H-indole-5-carboxylic acid [(S)-1-carbamoyl-2-(phenyl-pyrimidin-2-yl-amino)-ethyl]-amide]	Solubility [g in 100 g of solvent] ([1]; 46.0° C.): 1.02 g in 100 g of solvent; Solubility [g in 100 g of solvent] ([1]; 57.5° C.): 2.48 g in 100 g of solvent
